Target: T1, human LPA1 (Homo sapiens, UniProt Q92633)
T1 construct: expressed in transfected cells; host or cells: Chinese hamster ovary (CHO) cells
Assay: LPA1 functional antagonist assay (calcium flux)
Type: cell-based
Conditions: CHO cells overexpressing human LPA1; inhibition of calcium flux induced by 10 nM LPA; read-out: hLPA1 IC50
Summary of the method: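 IC50 values come from 4-parameter logistic fits and mark 50% block of the calcium flux evoked by 10 nM LPA. Human LPA1-overexpressing CHO cells were calcium-dye loaded at 37 °C, then given test compound (0.08 nM–5 μM, 0.5% DMSO, HEPES-buffered HBSS with 0.1% fatty-acid-free BSA) for 20 min at room temperature before agonist.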

T1 sequence (Q92633 whole entry): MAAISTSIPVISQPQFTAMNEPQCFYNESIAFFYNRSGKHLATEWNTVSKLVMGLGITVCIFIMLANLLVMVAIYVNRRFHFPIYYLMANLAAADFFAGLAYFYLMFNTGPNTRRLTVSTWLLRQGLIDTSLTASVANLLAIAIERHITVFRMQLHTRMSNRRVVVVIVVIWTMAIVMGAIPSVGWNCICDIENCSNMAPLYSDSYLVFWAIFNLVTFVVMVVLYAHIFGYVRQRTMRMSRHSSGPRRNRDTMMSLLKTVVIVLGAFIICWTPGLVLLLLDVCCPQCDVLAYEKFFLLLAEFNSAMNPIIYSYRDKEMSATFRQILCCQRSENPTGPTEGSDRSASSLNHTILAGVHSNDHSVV

IC50 [nM] | SMILES
71 | Cc1nc(-c2nnn(C)c2COc2cc(COC3CC3)ccn2)ccc1O[C@H]1CCC[C@H](C(=O)O)C1 [Example 323]
42 | CCCOCc1ccnc(NCc2c(-c3ccc(O[C@H]4CCC[C@H](C(=O)O)C4)c(C)n3)nnn2C)n1 [Example 324]
25 | COCc1ccnc(OCc2c(-c3ccc(O[C@H]4CCC[C@H](C(=O)O)C4)c(C)n3)nnn2C)c1 [Example 325]
99 | Cc1nc(-c2nnn(C)c2CNc2nccc(-n3cccn3)n2)ccc1O[C@H]1CCC[C@H](C(=O)O)C1 [Example 326]
335 | Cc1nc(-c2nnn(C)c2COc2nccc(-n3cccn3)n2)ccc1O[C@H]1CCC[C@H](C(=O)O)C1 [Example 327]
211 | Cc1nc(-c2nnn(C)c2CN(C)c2ncnc(C(C)C)n2)ccc1O[C@H]1CCC[C@H](C(=O)O)C1 [Example 328, (1S,3S)-3-((6-(5-(((4-Isopropyl-1,3,5-triazin-2-yl)(methyl)amino)methyl)-1-methyl-1H-1,2,3-triazol-4-yl)-2-methylpyridin-3-yl)oxy)cyclohexane-1l-carboxylic acid]
33 | Cc1nc(-c2nnn(C)c2COc2nccc(-c3ccccc3)n2)ccc1O[C@H]1CCC[C@H](C(=O)O)C1 [Example 330, (1S,3S)-3-((2-Methyl-6-(1-methyl-5-(((4-phenylpyrimidin-2-yl)oxy)methyl)-1H-1,2,3-triazol-4-yl)pyridin-3-yl)oxy)cyclohexane-1-carboxylic acid]
29 | Cc1nc(-c2nnn(C)c2COc2nccc(C(C)(C)C)n2)ccc1O[C@H]1CCC[C@H](C(=O)O)C1 [Example 332]
43 | Cc1nc(-c2nnn(C)c2CNc2ncnc(C(C)C)n2)ccc1O[C@H]1CCC[C@H](C(=O)O)C1 [Example 333]
19 | Cc1nc(-c2nnn(C)c2CNc2nccc(OCC3CC3)n2)ccc1O[C@H]1CCC[C@H](C(=O)O)C1 [Example 334]
18 | Cc1nc(-c2nnn(C)c2CNc2nccc(OCC3(C)CC3)n2)ccc1O[C@H]1CCC[C@H](C(=O)O)C1 [Example 335]
28 | Cn1nnc(-c2ccc(O[C@H]3CCC[C@H](C(=O)O)C3)cn2)c1CNc1nccc(OCC2(C)CC2)n1 [Example 336]
112 | Cc1nc(-c2nnn(C)c2CNc2nccc(OCC3(F)CC3)n2)ccc1O[C@H]1CCC[C@H](C(=O)O)C1 [Example 337]
21 | Cc1nc(-c2nnn(C)c2COc2nccc(N3CCCC3)n2)ccc1O[C@H]1CCC[C@H](C(=O)O)C1 [Example 338]
99 | Cc1nc(-c2nnn(C)c2COc2cncc(C(F)(F)F)n2)ccc1O[C@H]1CCC[C@H](C(=O)O)C1 [Example 339]
25 | Cc1nc(-c2nnn(C)c2COc2cncc(Oc3ccccc3)n2)ccc1O[C@H]1CCC[C@H](C(=O)O)C1 [Example 340]
16 | Cc1nc(-c2nnn(C)c2COc2ccnc(C(F)(F)F)n2)ccc1O[C@H]1CCC[C@H](C(=O)O)C1 [Example 341]
118 | Cc1cc(OCc2c(-c3ccc(O[C@H]4CCC[C@H](C(=O)O)C4)c(C)n3)nnn2C)ncn1 [Example 342]
100 | Cc1nc(-c2nnn(C)c2COc2nccc(N(C)C)n2)ccc1O[C@H]1CCC[C@H](C(=O)O)C1 [Example 343]

IC50 [nM] | SMILES
378 | COc1nccc(OCc2c(-c3ccc(O[C@H]4CCC[C@H](C(=O)O)C4)c(C)n3)nnn2C)n1 [Example 344]
9.5 | Cc1nc(-c2nnn(C)c2COc2nccc(C(C)C)n2)ccc1O[C@H]1CCC[C@H](C(=O)O)C1 [Example 345]
77 | COc1ccnc(OCc2c(-c3ccc(O[C@H]4CCC[C@H](C(=O)O)C4)c(C)n3)nnn2C)n1 [Example 346]
73 | CCc1ccnc(OCc2c(-c3ccc(O[C@H]4CCC[C@H](C(=O)O)C4)cn3)nnn2C)n1 [Example 347]
118 | Cn1nnc(-c2ccc(O[C@H]3CCC[C@H](C(=O)O)C3)cn2)c1COc1nccc(C2CC2)n1 [Example 348]
1220 | Cc1nc(-c2nnn(C)c2COc2nccc(N3CCC3)n2)ccc1O[C@H]1CCC[C@H](C(=O)O)C1 [Example 349]
565 | Cc1nc(-c2nnn(C)c2COc2ccnc(N3CCC3)n2)ccc1O[C@H]1CCC[C@H](C(=O)O)C1 [Example 350]
34 | COc1cc(OCc2c(-c3ccc(O[C@H]4CCC[C@H](C(=O)O)C4)cn3)nnn2C)ncn1 [Example 351]
38 | CCc1cc(OCc2c(-c3ccc(O[C@H]4CCC[C@H](C(=O)O)C4)cn3)nnn2C)ncn1 [Example 352]
81 | Cn1nnc(-c2ccc(O[C@H]3CCC[C@H](C(=O)O)C3)cn2)c1COc1cc(C(F)F)ncn1 [Example 353]
168 | Cc1nc(-c2nnn(C)c2COc2cc(C(F)(F)F)nc(N3CCCC3)n2)ccc1O[C@H]1CCC[C@H](C(=O)O)C1 [Example 354]
144 | Cc1nc(-c2nnn(C)c2COc2cc(-c3ccccn3)ncn2)ccc1O[C@H]1CCC[C@H](C(=O)O)C1 [Example 355]
447 | Cc1nc(-c2nnn(C)c2COc2cc(N3CCOCC3)ncn2)ccc1O[C@H]1CCC[C@H](C(=O)O)C1 [Example 356]
120 | Cc1nc(-c2nnn(C)c2COc2cc(-n3cncn3)ncn2)ccc1O[C@H]1CCC[C@H](C(=O)O)C1 [Example 357]
39 | Cc1nc(-c2nnn(C)c2COc2cc(-n3cccc3)ncn2)ccc1O[C@H]1CCC[C@H](C(=O)O)C1 [Example 358]
466 | Cc1nc(-c2nnn(C)c2COc2cc(-n3ccnc3)ncn2)ccc1O[C@H]1CCC[C@H](C(=O)O)C1 [Example 359]
100 | COCCCCOc1cc(OCc2c(-c3ccc(O[C@H]4CCC[C@H](C(=O)O)C4)c(C)n3)nnn2C)ncn1 [Example 360]
523 | Cc1nc(-c2nnn(C)c2COc2cc(OCCOC(C)C)ncn2)ccc1O[C@H]1CCC[C@H](C(=O)O)C1 [Example 361]
96 | CCOCCOc1cc(OCc2c(-c3ccc(O[C@H]4CCC[C@H](C(=O)O)C4)c(C)n3)nnn2C)ncn1 [Example 362]

IC50 [nM] | SMILES
22 | CSc1cc(OCc2c(-c3ccc(O[C@H]4CCC[C@H](C(=O)O)C4)c(C)n3)nnn2C)ncn1 [Example 363]
98 | CSc1cc(NCc2c(-c3ccc(O[C@H]4CCC[C@H](C(=O)O)C4)c(C)n3)nnn2C)ncn1 [Example 364]
117 | Cc1nc(-c2nnn(C)c2CNc2cc(C(F)F)ncn2)ccc1O[C@H]1CCC[C@H](C(=O)O)C1 [Example 365]
135 | Cc1nc(-c2nnn(C)c2CNc2nccc(C(F)F)n2)ccc1O[C@H]1CCC[C@H](C(=O)O)C1 [Example 366]
7.9 | CSc1ccnc(OCc2c(-c3ccc(O[C@H]4CCC[C@H](C(=O)O)C4)c(C)n3)nnn2C)n1 [Example 367]
79 | Cn1nnc(-c2ccc(O[C@H]3CCC[C@H](C(=O)O)C3)cn2)c1COc1cc(C(F)(F)F)ncn1 [Example 368]
8.4 | Cc1nc(-c2nnn(C)c2COc2cc(-n3cccn3)ncn2)ccc1O[C@H]1CCC[C@H](C(=O)O)C1 [Example 369]
21 | Cc1nc(-c2nnn(C)c2COc2nccc(C(C)(F)F)n2)ccc1O[C@H]1CCC[C@H](C(=O)O)C1 [Example 370]
16 | Cc1nc(-c2nnn(C)c2CNc2cc(C3CC3)ccn2)ccc1O[C@H]1CCC[C@H](C(=O)O)C1 [Example 371, (1S,3S)-3-((6-(5-(((4-cyclopropylpyridin-2-yl)amino)methyl)-1-methyl-1H-1,2,3-triazol-4-yl)-2-methylpyridin-3-yl)oxy)cyclohexane-1-carboxylic acid]
199 | Cc1nc(-c2nnn(C)c2CNc2cc(-c3ccccc3)c(Cl)nn2)ccc1O[C@H]1CCC[C@H](C(=O)O)C1 [Example 372, (1S,3S)-3-((6-(5-(((6-chloro-5-phenylpyridazin-3-yl)amino)methyl)-1-methyl-1H-1,2,3-triazol-4-yl)-2-methylpyridin-3-yl)oxy)cyclohexane-1-carboxylic acid]
80 | Cc1nc(-c2nnn(C)c2CNc2cc(C3CC3)ncn2)ccc1O[C@H]1CCC[C@H](C(=O)O)C1 [Example 373]
90 | Cc1nc(-c2nnn(C)c2CNc2ccnc(C3CC3)n2)ccc1O[C@H]1CCC[C@H](C(=O)O)C1 [Example 374]
110 | Cc1nc(-c2nnn(C)c2Cc2cccc(-c3ccccc3)n2)ccc1O[C@H]1CCC[C@H](C(=O)O)C1 [Example 376]
7.2 | Cc1nc(-c2nnn(C)c2Cc2cc(-c3ccccc3)ccn2)ccc1O[C@H]1CCC[C@H](C(=O)O)C1 [Example 377]
24.9 | Cc1nc(-c2nnn(C)c2Cc2nccc(-c3ccccc3)n2)ccc1O[C@H]1CCC[C@H](C(=O)O)C1 [Example 378]
93 | Cc1nc(-c2nnn(C)c2CN(C)c2ncnc(C3CC3)n2)ccc1O[C@H]1CCC[C@H](C(=O)O)C1 [Example 379, (1S,3S)-3-{[6-(5-{[(4-cyclopropyl-1,3,5-triazin-2-yl)(methyl)amino]methyl}-1-methyl-1H-1,2,3-triazol-4-yl)-2-methylpyridin-3-yl]oxy}cyclohexane-1-carboxylic acid]
94 | CCCc1cncc(NCc2c(-c3ccc(O[C@H]4CCC[C@H](C(=O)O)C4)c(C)n3)nnn2C)n1 [Example 380, (1S,3S)-3-((2-Methyl-6-(1-methyl-5-(((6-propylpyrazin-2-yl)amino)methyl)-1H-1,2,3-triazol-4-yl)pyridin-3-yl)oxy)cyclohexane-1-carboxylic acid]
38 | CCCCc1ncnc(N(C)Cc2c(-c3ccc(O[C@H]4CCC[C@H](C(=O)O)C4)c(C)n3)nnn2C)n1 [Example 381]

SMILES | IC50 [nM]
Cc1nc(-c2nnn(C)c2CNc2cc(OCC(C)C)ncn2)ccc1O[C@H]1CCC[C@H](C(=O)O)C1 [Example 329, (1S,3S)-3-((6-(5-(((6-Isobutoxypyrimidin-4-yl)amino)methyl)-1-methyl-1H-1,2,3-triazol-4-yl)-2-methylpyridin-3-yl)oxy)cyclohexane-1-carboxylicacid] | 82

— patent publication US11267800B2, “Cyclohexyl acid triazole azines as LPA antagonists” (BRISTOL-MYERS SQUIBB COMPANY, priority 2017, dated 2022)
